How the values were obtained:
[1] = system: Ph chromosome-positive leukemia cells; conditions: cited from earlier work
[2] = system: peripheral blood cells positive for Ph chromosome; conditions: of 18 CML patients; after five months of imatinib treatment
Text: The remaining four were reserved to test the predictive scoring system later. Of the 22, two “learning” cases (the cases used for the construction of the prediction system described later) were in blast crisis phase and two “test” cases (the cases used for testing the correctness of the prediction system described later) were in accelerated phase.

Cc1ccc(NC(=O)c2ccc(CN3CCN(C)CC3)cc2)cc1Nc1nccc(-c2cccnc2)n1 [imatinib, 4-(4-methylpiperazin-1-ylmethyl)-N-[4-methyl-3-(4-pyridin-3-ylpyrimidin-2-ylamino)phenyl]benzamide]
adverse effects ([1]; CML patients): without severe adverse effects
patients in whom Ph chromosome-positive leukemia cells are completely or partially reduced ([1]; CML patients): more than 60%
CML patients induced into hematological complete remission [1]: around 90%
patients with more than 65% of cells still positive for the Ph chromosome, non-responders [2]: six

Reference: US20060246436A1 (priority 2002, published 2006)
